Read-outs that look alike come from different tables or passages of the source.
Test system: A549 cells (KRAS G12S mutant)
Experiment: Cell proliferation inhibition experiment, 3D spheroid, CellTiter-Glo, A549
Format: cell-based, human
Details: read-out: A549 IC50
Summary of the method: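 CellTiter-Glo luminescence after 5 days' compound treatment (3.16-fold series, 0.1% DMSO) of overnight-formed spheroids in 2% FBS medium: H358 seeded at 800 cells/well in RPMI-1640, A549 at 400 cells/well in F-12K. IC50 derived by four-parameter fit of inhibition normalized to DMSO control and blank.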

[1] = Homo sapiens, A549, 120 h, A549 (KRAS G12S mutant) 3D spheroid, 5 days with compound, CellTiter-Glo
[2] = A549 (KRAS G12S mutant) 3D spheroid, 5 days with compound, CellTiter-Glo

| Structure (SMILES) | IC50 [1] [µM] | IC50 [2] [µM] | other results |
| --- | --- | --- | --- |
| C=CC(=O)N1CCN2C(=O)c3c(N4C[C@@H](O)CC4(C)C)nc(-c4c(O)cccc4F)c(Cl)c3OC[C@H]2C1 (single isomer, unassigned) [Z81] | > 1 |  |  |
| C=CC(=O)N1CCN2C(=O)c3c(NC(C)C)nc(-c4c(O)cccc4F)c(Cl)c3OC[C@H]2C1 [Z75, (6aR)-8-acryloyl-4-chloro-1-(isopropylamino)-3-(2-fluoro-6-hydroxyphenyl)-6,6a,7,8,9,10-hexahydro-12H-pyrazino[2,1-c]pyrido[3,4-f][1,4]oxazepin-12-one] | > 1 |  |  |
| C=CC(=O)N1CCN2C(=O)c3c(N4CC(N(C)C5COC5)CC4(C)C)nc(-c4c(O)cccc4F)c(Cl)c3OC[C@H]2C1 (single isomer, unassigned) [Z331-2] |  | 9.32 |  |
| C=CC(=O)N1CCN2C(=O)c3c(N4CCN(C)[C@H](C)C4)nc(-c4c(O)cccc4F)c(Cl)c3OC[C@H]2C1 [Z235, (6aR)-8-acryloyl-4-chloro-1-((R)-3,4-dimethylpiperazin-1-yl)-3-(2-fluoro-6-hydroxyphenyl)-6,6a,7,8,9,10-hexahydro-12H-pyrazino[2,1-c]pyrido[3,4-f][1,4]oxazepin-12-one] | 9.48 |  |  |
| C=CC(=O)N1CCN2C(=O)c3c(N4C[C@H](N(C)CCF)CC4(C)C)nc(-c4ccccc4F)c(Cl)c3OC[C@H]2C1 (single isomer, unassigned) [Z660-2] |  | 9.08 |  |
| C=CC(=O)N1CCN2C(=O)c3c(N4CCN(C)C[C@@H]4C)nc(-c4c(O)cccc4Cl)c(Cl)c3OC[C@H]2C1 (single isomer, unassigned) [Z455-1] |  | 4.18 |  |
| C=CC(=O)N1CCN2C(=O)c3c(OC4CCN(C)CC4)nc(-c4c(O)cccc4F)c(Cl)c3OC[C@H]2C1 [Z61, (6aR)-8-acryloyl-4-chloro-3-(2-fluoro-6-hydroxyphenyl)-1-((1-methylpiperidin-4-yl)oxy)-6,6a,7,8,9,10-hexahydro-12H-pyrazino[2,1-c]pyrido[3,4-f][1,4]oxazepin-12-one] | > 30 |  |  |
| C=CC(=O)N1CCN2C(=O)c3c(N4CCOC5CC54)nc(-c4c(O)cccc4F)c(Cl)c3OC[C@H]2C1 (stereo partly drawn) [Z76, (6aR)-8-acryloyl-4-chloro-1-(2-oxa-5-azabicyclo[4.1.0]heptan-5-yl)-3-(2-fluoro-6-hydroxyphenyl)-6,6a,7,8,9,10-hexahydro-12H-pyrazino[2,1-c]pyrido[3,4-f][1,4]oxazepin-12-one] | > 1 |  |  |
| C=CC(=O)N1CCN2C(=O)c3c(N4C[C@@H](O)C[C@@H]4C)nc(-c4c(O)cccc4F)c(Cl)c3OC[C@H]2C1 [Z260, (6aR)-8-acryloyl-4-chloro-3-(2-fluoro-6-hydroxyphenyl)-1-((2S,4S)-4-hydroxy-2-methylpyrrolidin-1-yl)-6,6a,7,8,9,10-hexahydro-12H-pyrazino[2,1-c]pyrido[3,4-f][1,4]oxazepin-12-one] | 27.8 |  |  |
| C=CC(=O)N1CCN2C(=O)c3c(N4CCN(C)C(C)(C)C4)nc(-c4c(O)cccc4F)c(Cl)c3OC[C@H]2C1 [Z261, (6aR)-8-acryloyl-4-chloro-3-(2-fluoro-6-hydroxyphenyl)-1-(3,3,4-trimethylpiperazin-1-yl)-6,6a,7,8,9,10-hexahydro-12H-pyrazino[2,1-c]pyrido[3,4-f][1,4]oxazepin-12-one] | 8.89 |  |  |
| C=CC(=O)N1CCN2C(=O)c3c(N4CC(N5CCOCC5)CC4(C)C)nc(-c4ccccc4F)c(Cl)c3OC[C@H]2C1 (single isomer, unassigned) [Z468-2] |  | 4.56 |  |
| C=CC(=O)N1CCN2C(=O)c3c(N4CCN(C)C[C@@H]4C)nc(-c4c(O)cccc4Cl)c(Cl)c3OC[C@H]2C1 (single isomer, unassigned) [Z455-2] |  | > 10 |  |
| C=CC(=O)N1CCN2C(=O)c3c(C4NCCN5C(=O)CCC45C)nc(-c4c(O)cccc4F)c(Cl)c3OC[C@H]2C1 (stereo partly drawn) [Z337, (6aR)-8-acryloyl-4-chloro-3-(2-fluoro-6-hydroxyphenyl)-1-(8a-methylhexahydropyrrolo[1,2-a]pyrazin-6 (2H)-one-1-yl)-6,6a,7,8,9,10-hexahydro-12H-pyrazino[2,1-c]pyrido[3,4-f][1,4]oxazepin-12-one] |  | > 30 |  |
| C=CC(=O)N1CCN2C(=O)c3c(N4CC(N(C)CC(F)F)CC4(C)C)nc(-c4ccccc4F)c(Cl)c3OC[C@H]2C1 (stereo partly shown) [Z659] |  | 5.46 |  |
| C=CC(=O)N1CCN2C(=O)c3c(N4CCN(C)C(C)C4C)nc(-c4c(O)cccc4F)c(Cl)c3OC[C@H]2C1 (stereo partly drawn) [Z308a, (6aR)-8-acryloyl-4-chloro-3-(2-fluoro-6-hydroxyphenyl)-1-(2,3,4-trimethylpiperazin-1-yl)-6,6a,7,8,9,10-hexahydro-12H-pyrazino[2,1-c]pyrido[3,4-f][1,4]oxazepin-12-one] |  | 7.1 |  |
| C=CC(=O)N1CCN2C(=O)c3c(N4CCOC5(CC5)C4)nc(-c4c(O)cccc4F)c(Cl)c3OC[C@H]2C1 [Z63, (6aR)-8-acryloyl-4-chloro-1-(4-oxa-7-azaspiro[2.5]octan-7-yl)-3-(2-fluoro-6-hydroxyphenyl)-6,6a,7,8,9,10-hexahydro-12H-pyrazino[2,1-c]pyrido[3,4-f][1,4]oxazepin-12-one] | > 1 |  |  |
| C=CC(=O)N1CCN2C(=O)c3c(N4C[C@H](N(C)C)CC4(C)C)nc(-c4ccccc4)c(Cl)c3OC[C@H]2C1 (single isomer, unassigned) [Z655-2] |  | 2.75 |  |
| C=CC(=O)N1CCN2C(=O)c3c(N4CCN(CC)C[C@@H]4C)nc(-c4c(O)cccc4F)c(Cl)c3OC[C@H]2C1 [Z236] |  |  | IC50 (Homo sapiens, A549, 120 h): 9.58 µM |
| C=CC(=O)N1CCN2C(=O)c3c(N4C[C@H](O)CC4(C)C)nc(-c4c(O)cccc4F)c(Cl)c3OC[C@H]2C1 (single isomer, unassigned) [Z82] | > 1 |  |  |
| C=CC(=O)N1CCN2C(=O)c3c(N(C)c4c(C)ccnc4C(C)C)nc(-c4c(O)cccc4F)c(Cl)c3OC[C@H]2C1 [Z6, (6aR)-8-acryloyl-4-chloro-3-(2-fluoro-6-hydroxyphenyl)-1-((2-isopropyl-4-methylpyridin-3-yl)(methyl)amino)-6,6a,7,8,9,10-hexahydro-12H-pyrazino[2,1-c]pyrido[3,4-f][1,4]oxazepin-12-one] | > 30 |  |  |
| C=CC(=O)N1CCN2C(=O)c3c(N4CC(=O)N(C)CC4C)nc(-c4c(O)cccc4F)c(Cl)c3OC[C@H]2C1 (stereo partly drawn) [Z221, (6aR)-8-acryloyl-4-chloro-1-(2,4-dimethyl-5-oxopiperazin-1-yl)-3-(2-fluoro-6-hydroxyphenyl)-6,6a,7,8,9,10-hexahydro-12H-pyrazino[2,1-c]pyrido[3,4-f][1,4]oxazepin-12-one] | 20.1 |  |  |
| C=CC(=O)N1CCN2C(=O)c3c(NC(C)(C)C)nc(-c4c(O)cccc4F)c(Cl)c3OC[C@H]2C1 [Z69, (6aR)-8-acryloyl-1-(tert-butylamino)-4-chloro-3-(2-fluoro-6-hydroxyphenyl)-6,6a,7,8,9,10-hexahydro-12H-pyrazino[2,1-c]pyrido[3,4-f][1,4]oxazepin-12-one] | > 5 |  |  |
| C=CC(=O)N1CCN2C(=O)c3c(N4CC(O)CC4(C)C)nc(-c4c(O)cccc4F)c(F)c3OC[C@H]2C1 (stereo partly drawn) [Z256, (6aR)-8-acryloyl-4-fluoro-3-(2-fluoro-6-hydroxyphenyl)-1-(4-hydroxy-2,2-dimethylpyrrolidin-1-yl)-6,6a,7,8,9,10-hexahydro-12H-pyrazino[2,1-c]pyrido[3,4-f][1,4]oxazepin-12-one] | 13.9 |  |  |
| C=CC(=O)N1CCN2C(=O)c3c(N4CC(N(C)C5COC5)CC4(C)C)nc(-c4c(O)cccc4F)c(Cl)c3OC[C@H]2C1 (single isomer, unassigned) [Z331-1] | 8.33 |  |  |
| C=CC(=O)N1CCN2C(=O)c3c(N4CC[C@@H]4C)nc(-c4c(O)cccc4F)c(Cl)c3OC[C@H]2C1 [Z68, (6aR)-8-acryloyl-1-((S)-2-methylazetidin-1-yl)-4-chloro-3-(2-fluoro-6-hydroxyphenyl)-6,6a,7,8,9,10-hexahydro-12H-pyrazino[2,1-c]pyrido[3,4-f][1,4]oxazepin-12-one] | > 5 |  |  |
| C=CC(=O)N1CCN2C(=O)c3c(Nc4c(C)ccnc4C(C)C)nc(-c4c(O)cccc4F)c(Cl)c3OC[C@H]2C1 [Z5, (6aR)-8-acryloyl-4-chloro-3-(2-fluoro-6-hydroxyphenyl)-1-((2-isopropyl-4-methylpyridin-3-yl)amino)-6,6a,7,8,9,10-hexahydro-12H-pyrazino[2,1-c]pyrido[3,4-f][1,4]oxazepin-12-one] | 4.68 |  |  |
| C=CC(=O)N1CCN2C(=O)c3c(N4CC(=O)N(C)CC4C)nc(-c4c(O)cccc4F)c(Cl)c3OC[C@H]2C1 (single isomer, unassigned) [Z221-1] | > 30 |  |  |
| C=CC(=O)N1CCN2C(=O)c3c(N4CCN(CCO)C[C@@H]4C)nc(-c4c(O)cccc4F)c(Cl)c3OC[C@H]2C1 [Z257, (6aR)-8-acryloyl-4-chloro-3-(2-fluoro-6-hydroxyphenyl)-1-((S)-4-(2-hydroxyethyl)-2-methylpiperazin-1-yl)-6,6a,7 ,8,9,10-hexahydro-12H-pyrazino[2,1-c]pyrido[3,4-f][1,4]oxazepin-12-one] | > 30 |  |  |
